Reference: patent EP0521799A1, “Ophthalmic compositions” (YISSUM RESEARCH DEVELOPMENT COMPANY OF THE HEBREW …, priority 1991, dated 1993)

Assays:
[1] = test system: ocularly hypertensive rabbits; assay: IOP after topical Δ⁸-THC composition, hypertensive rabbits; format: in vivo, albino rabbits; details: composition of the invention comprising 0.4% Δ⁸-THC
Method: (§1) The intraocular pressure (IOP) was measured by a Digilab pneumotonometer model 30R. For IOP measurement, one drop of the local anaesthetic benoxinate HCl (Fischer Pharmaceuticals, Israel) diluted 1:3 in sterile solution was instilled into each eye. In order to ensure reproducibility of IOP readings, the animals were accustomed to the experimental procedure by repeated handling.
(§2) A composition in accordance with the invention comprising 0.4% Δ⁸-THC was administered to the right eyes of albino rabbits. The administration of the composition and IOP measurements were performed as described above under (A).
(§3) Both ocularly hypertensive and normo-tensive albino rabbits were used in the study.

[2] = test system: ocularly normo-tensive rabbits; assay: IOP after topical Δ⁸-THC composition, normo-tensive rabbits; format: in vivo, albino rabbits; details: composition of the invention comprising 0.4% Δ⁸-THC
Method: as §1, §2, §3

[3] = test system: A. niger; assay: Preservative efficacy in emulsion (Table 2); format: cell-based
Method: (§4) To each 20ml of emulsion, an inoculum of a microorganismal suspension (at an initial concentration of about 1-3 x 10⁸ cells per ml) was added under sterile conditions to a final concentration of about 1-3 x 10⁶ cells per ml of emulsion. Immediately upon inoculation and at 24, 48 hours, 7, 14 and 28 days thereafter, samples of 1 ml were withdrawn and eluted in a pH 7.0 sodium chloride buffer (B.P. 88 neutralizing buffer, DIFCO Laboratories, Detroit, MI, USA) to neutralize the preservatives. After about 20-30 minutes of exposure of sample to the neutralizing buffer, samples were filtered through a 0.45µm cellulose acetate filter (TE, Schueller & Schleicher). The filter and the holder were washed with 3 portions of 100 ml of sodium chloride peptone solution and then the filter was transferred to a petri dish with PCPL media which consisted of the following ingredients (per 400 ml): 20g tryptone, 1.0g yeast extract, 0.4g. dextrose, 6.0 bactoagar, 0.4g lethicin and 8.0ml Tween 80.
(§5) At 24 hours or at 2 to 5 days after the withdrawal of the sample, the number of the microorganism was counted on the petri dishes. (In order to achieve a proper count of the microorganism dilutions of the initially withdrawn sample to obtain a dilution factor of 1:10-1:50,000, were made).
(§6) Two blank emulsions without a preservative served as control for the two different neutralizing buffers.

[4] = test system: C. albicans; assay: Preservative efficacy in emulsion (Table 2); format: cell-based
Method: as §4, §5, §6

[5] = test system: E. coli; assay: Preservative efficacy in emulsion (Table 2); format: cell-based
Method: as §4, §5, §6

[6] = test system: P. aeruginosa; assay: Preservative efficacy in emulsion (Table 2); format: cell-based
Method: as §4, §5, §6

[7] = test system: S.aureus; assay: Preservative efficacy in emulsion (Table 2); format: cell-based; details: for Number of Organisms in 1ml Emulsion: S.aureus
Method: as §4, §5, §6

[8] = test system: microorganisms; assay: Preservative efficacy of single preservatives, overall judgement; format: cell-based
Method: as §4, §5, §6
The same experiment was also carried out with Chlorbutol alone instead of Thimerosal.

[9] = HU-211 concentration in emulsions on storage; format: physicochemical; details: in emulsion
Method: The HU-211 concentration was measured at different temperatures after various storage times and the results are shown in Fig. 11.

[10] = test system: Albino rabbits; assay: Intraocular pressure (IOP) after a single topical dose of HU-211 emulsion; format: in vivo; details: for decrease of IOP in the contralateral eye: untreated left eye, about 4 hours after administration
Method: Albino rabbits of both sexes weighing 2.25 kg were used. All rabbits chosen had no signs of ocular pathology.
as §1
Basal IOP was measured for 2 days prior to drug application by measuring the IOP 5 times over an 11 hrs. period (starting at 8am and ending at 7pm). Each time IOP was measured twice and an average of two readings was obtained.
IOP was measured at the time of drug application and at 1.5, 4, 6 and 11 hrs. thereafter.
Two groups of animals were tested, each by a different experimenter. The first group which consisted of 20 rabbits is referred to herein as " Group I" and the second group which consisted of 10 rabbits is referred to herein as "Group II". The two groups received, however, exactly the same treatment.
The treatment consisted of the application of a single dose of 50µl of a 0.1% (w/v) of HU-211 preparation in accordance with the invention into the lower cul-de-sac of the right eye of each rabbit. The eye was then kept open for a few more seconds, while excessive liquid spilling over the eyelid was wiped off. The left eye was not treated.

[11] = Oh (immediately upon inoculation)
[12] = single preservative in emulsion
[13] = treated eye, single dose 50µl of 0.1% (w/v) HU-211

Compound	Number of Organisms in 1ml Emulsion ([3]; 24h)	Number of Organisms in 1ml Emulsion ([3]; 48h)	Number of Organisms in 1ml Emulsion ([4]; 24h)	Number of Organisms in 1ml Emulsion ([4]; 48h)	Number of Organisms in 1ml Emulsion [4, 11]	Number of Organisms in 1ml Emulsion ([5]; 48h)	Number of Organisms in 1ml Emulsion [5, 11]	Number of Organisms in 1ml Emulsion ([6]; 24h)	Number of Organisms in 1ml Emulsion ([6]; 48h)	Number of Organisms in 1ml Emulsion [6, 11]	Number of Organisms in 1ml Emulsion [7, 11]	other results
Δ⁸-THC	–	–	–	–	–	–	–	–	–	–	–	duration of the reduction of IOP [1]: long-lasting; IOP ([1]; right eye): dramatically reduces the IOP; duration of the reduction of IOP [2]: long-lasting; IOP ([2]; right eye): dramatically reduces the IOP
Benzalkonium chloride [BZK]	29	43	>600	433	1.0 x 10^6	5 x 10^6	2.6 x 10^6	10^7	10^7	4.2 x 10^6	7.3 x 10^6	Number of Organisms in 1ml Emulsion [3, 11]: 1.5 x 10^4; Number of Organisms in 1ml Emulsion ([5]; 24h): 10^7; Number of Organisms in 1ml Emulsion ([7]; 24h): 10^7; Number of Organisms in 1ml Emulsion ([7]; 48h): 10^7
CC(C)(O)C(Cl)(Cl)Cl [Chlorbutol]	–	–	–	–	–	–	–	–	–	–	–	compliance with B.P. requirements [8, 12]: did not meet the B.P. requirements; preservative protection [8, 12]: No total preservative protection was achieved
C[CH2][Hg][S]c1ccccc1C(=O)O [THI, Thimerosal]	–	–	–	–	–	–	–	–	–	–	–	preservative protection ([4]; at 24h): not able to protect totally; maintenance of total killing ([6]; after 48 hours): contamination was noted; maintenance of total killing ([7]; S. aureus, after 48 hours): contamination was noted; preservative effect compared with the other tested preservatives ([8]; 0.01% Thimerosal vs 0.02% benzalkonium chloride and 0.05% chlorhexadiene gluconate): much better preservative effect
N=C(NCCCCCCNC(=N)NC(=N)Nc1ccc(Cl)cc1)NC(=N)Nc1ccc(Cl)cc1 [CHL, Chlorhexidine gluconate]	38	54	>600	433	0.9 x 10^6	5 x 10^6	5.5 x 10^6	10^7	10^7	4.2 x 10^6	3.5 x 10^6	–
CCCCCCC(C)(C)c1cc(O)c2c(c1)OC(C)(C)[C@H]1CC=C(CO)C[C@H]21 [HU-211]	–	–	–	–	–	–	–	–	–	–	–	HU-211 concentration ([9]; 8 months at 4°C, 25°C, 30°C and 37°C): essentially no change; HU-211 concentration ([9]; storage at 50°C): marked decrease in concentration; decrease of IOP in the contralateral eye ([10]; Group I): about 11.4%; decrease of IOP in the contralateral eye ([10]; Group II): ~12.1%; time until which the decrease in IOP persisted ([10]; treated eye, percentage of IOP change from basal level (Fig. 14)): about 11 hours; time after which basal IOP levels were resumed [10, 13]: about 11 hrs; time for which the decrease in IOP lasted [10, 13]: about 6 hrs; IOP ([10]; treated right eye, single dose of 50µl of 0.1% (w/v) HU-211 emulsion): dramatic decrease in IOP
